Several values for one entry are separate records, joined by “and”; a condition that tells them apart may be missing. Equal values may be shown once.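 Test compounds were applied to cells in 96-well plates for 48 hours at 5 doses. At the GI50, growth is halved. TGI: total growth inhibition.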
What was measured:
Assay in all cases: DTP human tumour cell line panel, 48 h
A498 renal = test system: A498 renal
A549 NSCLC = test system: A549 NSCLC
HT29 colon = test system: HT29 colon
SK-MEL-5 melanoma = test system: SK-MEL-5 melanoma
HCT-15 colon = test system: HCT-15 colon
OVCAR-4 ovarian = test system: OVCAR-4 ovarian
NCI-H522 lung = test system: NCI-H522 lung
ACHN renal = test system: ACHN renal
COLO 205 colon = test system: COLO 205 colon
HCC-2998 colon = test system: HCC-2998 colon

| SMILES | TGI (A498 renal) | TGI (A549 NSCLC) [µM] | TGI (HT29 colon) [µM] | TGI (SK-MEL-5 melanoma) [µM] | TGI (HCT-15 colon) [µM] | TGI (OVCAR-4 ovarian) [µM] | TGI (NCI-H522 lung) [µM] | TGI (ACHN renal) [µM] | TGI (COLO 205 colon) | TGI (HCC-2998 colon) [µM] | GI50 (A498 renal) [µM] | GI50 (A549 NSCLC) [µM] | GI50 (OVCAR-4 ovarian) [µM] | GI50 (HCC-2998 colon) [µM] | GI50 (HT29 colon) [µM] | GI50 (SK-MEL-5 melanoma) [µM] | GI50 (HCT-15 colon) [µM] | GI50 (ACHN renal) [µM] | GI50 (COLO 205 colon) [µM] |
| --- | --- | --- | --- | --- | --- | --- | --- | --- | --- | --- | --- | --- | --- | --- | --- | --- | --- | --- | --- |
| COc1ccc(CC2COc3cc(OC)cc(OC)c3C2=O)cc1 (centres undefined) | > 100 µM | > 100 | 40.4 | 68 | > 100 | 51.5 | 87 | > 100 | 31.1 µM | – | – | – | – | – | – | – | – | – | – |
| CC1=C2C(O)C(C(C)C(=O)N(C)C)CCC2(C)C=CC1=O (centres undefined) | > 100 µM | > 100 | > 100 | > 100 | > 100 | > 100 | > 100 | – | > 100 µM | > 100 | – | – | – | – | – | – | – | – | – |
| CN(C)/C=C/C(=CC=[N+](C)C)/C=C/N(C)C | > 100 µM | > 100 | > 100 | > 100 | – | > 100 | > 100 | > 100 | – | > 100 | – | – | – | – | – | – | – | – | – |
| CCC1C[N+]23CCc4c([nH]c5ccccc45)C2CC1CC3 (centres undefined) | – | – | > 100 | 48.9 | > 100 | > 100 | > 100 | > 100 | > 100 µM | > 100 | – | – | – | – | – | – | – | – | – |
| O=C1C=C(C2OC(CO)C(O)C2O)C(=O)N1 (centres undefined) | > 100 µM | > 100 | > 100 | > 100 | > 100 | > 100 | 38.5 | – | > 100 µM | > 100 | – | – | – | – | – | – | – | – | – |
| Cc1n(CC(C)C)c2c([n+]1C)C(=O)c1ccccc1C2=O | 1.27 µM | 1.34 | 1.03 | 0.139 | 4.39 | 1.02 | 0.0386 | 3.53 | 0.0575 µM | 1.53 | – | – | – | – | – | – | – | – | – |
| Cc1ccc2c(ccc(/C=C/c3ccc(O)c4ncccc34)[n+]2C)c1 | 26.5 µM | 44.1 | 27.7 | 35.3 | > 100 | 33.6 | 27.1 | 33.1 | 39.9 µM | 20.7 | – | – | – | – | – | – | – | – | – |
| N#C[S-].[La+3].c1cnc2c(c1)ccc1cccnc12.c1cnc2c(c1)ccc1cccnc12.c1cnc2c(c1)ccc1cccnc12 | 13.5 µM | 10.6 | 18 | 12.7 | – | 16.8 | 16 | 12.9 | 16.1 µM | 18.8 | – | – | – | – | – | – | – | – | – |
| CCOC(=O)Nc1cc2c(c(N)n1)N=C(c1ccc(OC)cc1)CN2 | 0.645 µM and 0.972 µM | 2.34 | 0.321 | 0.141 | > 100 | 49.4 | 0.00636 | 35.7 | 0.196 µM and 0.146 µM | 0.178 | 0.178 | 0.0204 | 11.4 | 0.0185 | – | – | – | – | – |
| Cc1ccc(S(=O)(=O)Nc2cccc3c(=O)[nH]cnc23)cc1 | > 100 µM | > 100 | > 100 | > 100 | > 100 | > 100 | > 100 | > 100 | > 100 µM | > 100 | – | – | – | – | – | – | – | – | – |
| CCOP(=Nc1ccc(N(C)C)cc1)(OCC)OCC | > 100 µM | > 100 | – | > 100 | > 100 | > 100 | > 100 | > 100 | > 100 µM | > 100 | – | – | – | – | – | – | – | – | – |
| CC(=O)C(C(c1ccccc1)N1CCOCC1)N1CCOCC1 (centres undefined) | > 100 µM | > 100 | > 100 | > 100 | > 100 | > 100 | > 100 | > 100 | > 100 µM | 35.8 | – | – | – | – | – | – | – | – | – |
| CC1(C)[C@@H]2CC[C@]1(C)[C@H](OC(=O)CSC#N)C2 | > 100 µM | > 100 | > 100 | > 100 | > 100 | > 100 | > 100 | > 100 | > 100 µM | > 100 | – | – | – | – | – | – | – | – | – |
| O=S(=O)(O)c1ccc(N=Nc2ccc3c(S(=O)(=O)O)cccc3c2O)c2ccccc12 | > 100 µM | > 100 | > 100 | > 100 | > 100 | > 100 | > 100 | > 100 | > 100 µM | – | – | – | – | – | – | – | – | – | – |
| Cc1cccc(Cl)c1NCC(O)CN1CCN(C)CC1 (centres undefined) | > 100 µM | > 100 | > 100 | > 100 | > 100 | > 100 | > 100 | > 100 | – | > 100 | – | – | – | – | – | – | – | – | – |
| COC1OC(CS(=O)(=O)O)C(O)C(O)C1O (centres undefined) | > 100 µM | – | > 100 | > 100 | > 100 | > 100 | – | – | > 100 µM | > 100 | – | – | – | – | – | – | – | – | – |
| C=C1C(=O)OC2/C=C(\C(=O)O)CC/C=C(\C)CC(OC(=O)/C=C(\C)CC)C12 (centres undefined) | 32 µM | 31.6 | 30.1 | 32.9 | 28.6 | 45.1 | 32.8 | 46.2 | 31.3 µM | 33.8 | – | – | – | – | – | – | – | – | – |
| COc1cc2c(cc1O)c(O)cc1c3cc(OC)c(OC)cc3c[n+](C)c21 | > 100 µM | > 100 | > 61.4 | 40.2 | > 100 | > 100 | 25.2 | > 100 | > 100 µM | > 100 | – | – | – | – | – | – | – | – | – |
| CCCC(C)c1ccc(OCCCCCCN2CCNCC2)cc1 (centres undefined) | 9.33 µM | 4.34 | 3.74 | 3.1 | 3.77 | – | – | 5.32 | 3.42 µM | 3.28 | 2.43 | 1.9 | – | 1.84 | 1.66 | 1.67 | 1.88 | 2.23 | 1.65 |
| CN(C)CCNC(=O)c1cccc2c(=O)c3ccccc3oc12 | 52.8 µM | > 100 | 98.7 | 60.5 | > 100 | > 90.5 | – | – | 19.4 µM | > 100 | – | – | – | – | – | – | – | – | – |
| O=C(c1ccccc1)c1ccc2n[se]nc2c1 | > 100 µM | > 100 | > 100 | > 100 | > 100 | > 100 | > 100 | > 100 | 84.1 µM | 73.7 | – | – | – | – | – | – | – | – | – |

Reference: PubChem BioAssay (NCI)
